Data on four compounds can be found in patent US4001315A, “Prostaglandin derivatives” (American Home Products Corporation, priority 1975, dated 1977).

Experiment [1] is described as follows: Hypotension in the anesthetized dog by the intravenous route. The format is in vivo. As for the experimental part: In the use of the compounds of the invention to produce hypotensive effects in warm-blooded animals, administration by the injectable route is preferred, preferably the intravenous route.
Thus in the anesthetized dog by the intravenous route the dose to produce hypotension is from about 1 mg/kg. to about 200 mg/kg. and preferably from about 10 mg/kg. to about 100 mg/kg. Using this procedure the following results were obtained.

In experiment [2] the test system is bronchoconstricting effects of a standard dose of acetylcholine. As to the kind of experiment: Bronchodilation by aerosol inhalation in the guinea pig (method of Rosenthale et al.). The format is in vivo. The arrangement: dose or concentration left out as unconfirmed. The text has this: In using the compounds of the invention to produce bronchodilating effects in warm-blooded animals, they may be administered in a variety of dosage forms: oral, injectable, and aerosol inhalation. Aerosol inhalation is a preferred method because of its rapid onset of action, great potency, and specificity of action. The particular dosage to obtain the bronchodilating effect will vary with the particular compound employed, the particular animal involved, and the degree of bronchodilation desired. […] The bronchodilation produced upon aerosol inhalation can be observed by the method of Rosenthale et al., J. Pharmacol. Exp. Ther., 178, 541 (1971). Using this procedure the following result was obtained.

For `C#CC1(O)CC[C@H](/C=C/[C@@H](O)CCCCC)[C@H]1C/C=C\CCCC(=O)O` (stereo partly drawn) [7-[(5RS)-5-Ethynyl-5-Hydroxy-2β-((3S)-3-Hydroxy-Trans-1-Octenyl)-1α-Cyclopentyl]-Cis-5-Heptenoic Acid], the Δb.p. in experiment [1] (Dose 10 mg/kg.) is on record as -40 mm. Hg. Regarding `C#CC(O)(/C=C/[C@H]1CCC(O)(C#C)[C@@H]1C/C=C\CCCC(=O)O)CCCCC` (stereo partly drawn) [7-[(5RS)-5-Ethynyl-2β-((3RS)-3-Ethynyl-3-Hydroxy-Trans-1-Octenyl)-5-Hydroxy-1α-Cyclopentyl]-Cis-5-Heptenoic Acid], the “Percent Inhibition of the bronchoconstricting effects of a standard dose of acetylcholine” value in experiment [2] is given as 48%. The compound further gave a Δb.p. in experiment [1] (Dose 100 mg/kg.) of -26 mm. Hg. In experiment [1] (Dose 100 mg/kg.), `CCCCC[C@H](O)/C=C/[C@H]1CC[C@](C)(O)[C@@H]1C/C=C\CCCC(=O)O` [7-(5α-Hydroxy-2β-[(3S)-3-Hydroxy-Trans-1-Octenyl]-5β-Methyl-1α-Cyclopentyl)-Cis-5-Heptenoic Acid] showed a Δb.p. of -23 mm. Hg.

`CCCCC[C@H](O)/C=C/[C@H]1CC[C@@](C)(O)[C@@H]1C/C=C\CCCC(=O)O` [7-(5β-Hydroxy-2β-[(3S)-3-Hydroxy-Trans-1-Octenyl]-5α-Methyl-1α-Cyclopentyl)-Cis-5-Heptenoic Acid]: the Δb.p. in experiment [1] (Dose 100 mg/kg.) is on record as -19 mm. Hg.
